Measurements reported in ChEMBL document CHEMBL5724914, “Linking interpersonal differences in gut microbiota composition and drug biotransformation activity” (2024).

Legend:
[1] = (§1) The drug is tested on Z-024 corresponding to pig gut metagenome with ENA study accession number: PRJEB37062 and ENA sample accession number: ERS12561823 for biotransformation under anaerobic condition. The drug concentrations were measured over 9 timepoints collected between 0 and 24 hours of incubation by liquid-chromatography-coupled mass spectrometry (LC–MS); conditions: 2 µM
[2] = as §1, with “WLS-370” for “Z-024”, “human” for “pig”, “ERS12561793” for “ERS12561823”; conditions: 2 µM
[3] = human gut metagenome, 24 h, 2 µM
[4] = as §1, with “Z-027” for “Z-024”, “to” for “to pig gut”, “ERS12561826” for “ERS12561823”; conditions: 2 µM
[5] = human gut metagenome, 24 h, 2 µM; remark: listed apart in the source
[6] = human gut metagenome, 24 h, 2 µM; remark: listed apart in the source
[7] = as §1, with “Z-003” for “Z-024”, “ERS12561803” for “ERS12561823”; conditions: 2 µM
[8] = as §1, with “WLS-052” for “Z-024”, “human” for “pig”, “ERS12561747” for “ERS12561823”; conditions: 2 µM
[9] = as §1, with “Z-009” for “Z-024”, “ERS12561809” for “ERS12561823”; conditions: 2 µM
[10] = as §1, with “Z-012” for “Z-024”, “to” for “to pig gut”, “ERS12561812” for “ERS12561823”; conditions: 2 µM
[11] = as §1, with “Z-018” for “Z-024”, “ERS12561817” for “ERS12561823”; conditions: 2 µM
[12] = human gut metagenome, 24 h, 2 µM; remark: listed apart in the source
[13] = as §1, with “WLS-310” for “Z-024”, “human” for “pig”, “ERS12561785” for “ERS12561823”; conditions: 2 µM
[14] = as §1, with “Z-019” for “Z-024”, “rat” for “pig”, “ERS12561818” for “ERS12561823”; conditions: 2 µM
[15] = human gut metagenome, 24 h, 2 µM; remark: listed apart in the source
[16] = as §1, with “Z-017” for “Z-024”, “mouse” for “pig”, “ERS12561816” for “ERS12561823”; conditions: 2 µM
[17] = as §1, with “WLS-010” for “Z-024”, “human” for “pig”, “ERS12561743” for “ERS12561823”; conditions: 2 µM
[18] = as §1, with “WLS-240” for “Z-024”, “human” for “pig”, “ERS12561773” for “ERS12561823”; conditions: 2 µM
[19] = as §1, with “Z-010” for “Z-024”, “to” for “to pig gut”, “ERS12561810” for “ERS12561823”; conditions: 2 µM
[20] = human gut metagenome, 24 h, 2 µM; remark: listed apart in the source
Also: call rule not given here.

| SMILES | Bacterial Biotransformation [1] | Bacterial Biotransformation [2] | Bacterial Biotransformation [3] | Bacterial Biotransformation [4] | Bacterial Biotransformation [5] | Bacterial Biotransformation [6] | Bacterial Biotransformation [7] | Bacterial Biotransformation [8] | Bacterial Biotransformation [9] | Bacterial Biotransformation [10] | Bacterial Biotransformation [11] | Bacterial Biotransformation [12] | Bacterial Biotransformation [13] | Bacterial Biotransformation [14] | Bacterial Biotransformation [15] | Bacterial Biotransformation [16] | Bacterial Biotransformation [17] | Bacterial Biotransformation [18] | Bacterial Biotransformation [19] | Bacterial Biotransformation [20] |
| --- | --- | --- | --- | --- | --- | --- | --- | --- | --- | --- | --- | --- | --- | --- | --- | --- | --- | --- | --- | --- |
| CC(Oc1c(Cl)cccc1Cl)C1=NCCN1 (stereo not given) [LOFEXIDINE] | Compound NOT metabolized | Compound NOT metabolized | Compound NOT metabolized | Compound NOT metabolized | Compound metabolized | Compound NOT metabolized | Compound NOT metabolized | Compound NOT metabolized | Compound NOT metabolized | Compound NOT metabolized | Compound NOT metabolized | Compound NOT metabolized | Compound metabolized | Compound NOT metabolized | Compound metabolized | Compound NOT metabolized | Compound NOT metabolized | Compound metabolized | Compound NOT metabolized | Compound metabolized |
| CN(C)C(=O)C(CCN1CCC(O)(c2ccc(Cl)cc2)CC1)(c1ccccc1)c1ccccc1 [LOPERAMIDE] | Compound metabolized | Compound metabolized | Compound metabolized | Compound metabolized | Compound metabolized | Compound metabolized | Compound metabolized | Compound metabolized | Compound metabolized | Compound metabolized | Compound metabolized | Compound metabolized | Compound metabolized | Compound NOT metabolized | Compound metabolized | Compound NOT metabolized | Compound metabolized | Compound metabolized | Compound metabolized | Compound metabolized |
| CCCCc1nc(Cl)c(CO)n1Cc1ccc(-c2ccccc2-c2nn[nH]n2)cc1 [LOSARTAN] | Compound NOT metabolized | Compound metabolized | Compound metabolized | Compound NOT metabolized | Compound metabolized | Compound NOT metabolized | Compound NOT metabolized | Compound NOT metabolized | Compound NOT metabolized | Compound NOT metabolized | Compound NOT metabolized | Compound NOT metabolized | Compound metabolized | Compound NOT metabolized | Compound metabolized | Compound NOT metabolized | Compound metabolized | Compound metabolized | Compound NOT metabolized | Compound metabolized |
| COC(=O)Nc1nc2ccc(C(=O)c3ccccc3)cc2[nH]1 [MEBENDAZOLE] | Compound metabolized | Compound metabolized | Compound metabolized | Compound NOT metabolized | Compound metabolized | Compound metabolized | Compound metabolized | Compound metabolized | Compound metabolized | Compound metabolized | Compound metabolized | Compound metabolized | Compound metabolized | Compound NOT metabolized | Compound metabolized | Compound NOT metabolized | Compound metabolized | Compound metabolized | Compound metabolized | Compound metabolized |
| COc1ccccc1OCC(O)COC(N)=O (stereo not given) [METHOCARBAMOL] | Compound NOT metabolized | Compound NOT metabolized | Compound NOT metabolized | Compound NOT metabolized | Compound NOT metabolized | Compound NOT metabolized | Compound NOT metabolized | Compound NOT metabolized | Compound NOT metabolized | Compound NOT metabolized | Compound NOT metabolized | Compound NOT metabolized | Compound NOT metabolized | Compound NOT metabolized | Compound NOT metabolized | Compound NOT metabolized | Compound NOT metabolized | Compound NOT metabolized | Compound NOT metabolized | Compound NOT metabolized |
| CC[C@@H](CO)NC(=O)[C@@H]1C=C2c3cccc4c3c(cn4C)C[C@H]2N(C)C1.O=C(O)/C=C\C(=O)O [METHYSERGIDE MALEATE] | Compound NOT metabolized | Compound NOT metabolized | Compound NOT metabolized | Compound NOT metabolized | Compound NOT metabolized | Compound NOT metabolized | Compound NOT metabolized | Compound NOT metabolized | Compound NOT metabolized | Compound NOT metabolized | Compound NOT metabolized | Compound NOT metabolized | Compound metabolized | Compound NOT metabolized | Compound metabolized | Compound NOT metabolized | Compound NOT metabolized | Compound NOT metabolized | Compound NOT metabolized | Compound NOT metabolized |
| CCN(CC)CCNC(=O)c1cc(Cl)c(N)cc1OC [METOCLOPRAMIDE] | Compound NOT metabolized | Compound NOT metabolized | Compound NOT metabolized | Compound NOT metabolized | Compound NOT metabolized | Compound NOT metabolized | Compound NOT metabolized | Compound NOT metabolized | Compound NOT metabolized | Compound NOT metabolized | Compound NOT metabolized | Compound NOT metabolized | Compound NOT metabolized | Compound NOT metabolized | Compound NOT metabolized | Compound NOT metabolized | Compound NOT metabolized | Compound metabolized | Compound NOT metabolized | Compound NOT metabolized |
| Cc1ccccc1N1C(=O)c2cc(S(N)(=O)=O)c(Cl)cc2NC1C (stereo not given) [METOLAZONE] | Compound NOT metabolized | Compound NOT metabolized | Compound NOT metabolized | Compound NOT metabolized | Compound metabolized | Compound NOT metabolized | Compound NOT metabolized | Compound metabolized | Compound NOT metabolized | Compound NOT metabolized | Compound NOT metabolized | Compound metabolized | Compound NOT metabolized | Compound NOT metabolized | Compound metabolized | Compound NOT metabolized | Compound NOT metabolized | Compound metabolized | Compound NOT metabolized | Compound metabolized |
